Results from ChEMBL document CHEMBL5137049, “Discovery of a Novel Small-Molecule Inhibitor Disrupting TRBP-Dicer Interaction against Hepatocellular Carcinoma via the Modulation of microRNA Biogenesis” (J Med Chem, 2022).
The source made the active and inactive calls. The rule behind the calls is not given here.

Assays:
[1] = molecular target: T1, Programmed cell death protein 4 (Homo sapiens) (UniProt Q53EL6); experiment: Inhibition of PDCD4 in human HeLa cells tranfected with pCI-neo-luciferase-PDCD4 3'-UTR plasmid assessed as fold change in luciferase signal by measuring relative luciferase unit by luciferase reporter assay; type: cell-based
T1 sequence (whole entry): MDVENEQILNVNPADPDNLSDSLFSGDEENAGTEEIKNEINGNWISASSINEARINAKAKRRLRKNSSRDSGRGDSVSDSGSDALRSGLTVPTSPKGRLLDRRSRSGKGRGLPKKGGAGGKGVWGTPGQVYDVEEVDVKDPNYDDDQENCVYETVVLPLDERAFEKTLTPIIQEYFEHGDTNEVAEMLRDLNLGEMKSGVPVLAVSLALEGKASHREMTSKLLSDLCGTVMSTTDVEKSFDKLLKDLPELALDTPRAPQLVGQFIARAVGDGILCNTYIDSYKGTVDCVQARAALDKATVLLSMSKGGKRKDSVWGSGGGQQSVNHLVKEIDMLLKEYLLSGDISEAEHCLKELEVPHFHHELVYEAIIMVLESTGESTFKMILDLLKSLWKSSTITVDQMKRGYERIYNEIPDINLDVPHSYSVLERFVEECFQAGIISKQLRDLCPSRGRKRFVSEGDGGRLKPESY

HeLa = experiment: Inhibition of microRNA in human HeLa cells transfected with pCI-neo-luciferase-miR-21 plasmid assessed as change in luciferase signal by measuring relative luciferase unit by luciferase reporter assay; type: cell-based
SK-HEP1 [2] = experiment: Antiproliferative activity against human SK-HEP1 cells assessed as inhibition of cell growth incubated for 72 hrs by CellTiter-luminescence assay; type: functional, cell-based
SK-HEP1 [3] = experiment: Inhibition of cell migration in human SK-HEP1 cells at 10 to 25 uM measured after 24 hrs by crystal violet staining based transwell assay; type: functional; details: dose 10-25 µM
HCCLM3 = experiment: Antiproliferative activity against human HCCLM3 cells assessed as inhibition of cell growth incubated for 72 hrs by CellTiter-luminescence assay; type: functional, cell-based
[4] = Inhibition of microRNA in human HeLa cells transfected with pCI-neo-luciferase-miR-21 plasmid assessed as change in luciferase signal incubated for 24 hrs by luciferase reporter assay; type: cell-based

| SMILES | RLU [1] | RLU (HeLa) | other results |
| --- | --- | --- | --- |
| COc1ccc(S(=O)(=O)N(Cc2nc(-c3ccc(OC)c(OC)c3)oc2C)[C@@H](C(=O)O)C(C)C)cc1 | 0.86 | 1.02 |  |
| COc1cc(-c2nc(CCl)c(C)o2)cc(OC)c1OC | 2.01 | 1.09 |  |
| COc1ccc(S(=O)(=O)N(Cc2nc(-c3ccc([N+](=O)[O-])cc3)oc2C)[C@@H](C(=O)O)C(C)C)cc1 | 1.02 | 1.17 |  |
| COC(=O)[C@@H](C(C)C)N(Cc1nc(-c2ccc(OC)c(OC)c2)oc1C)S(=O)(=O)c1ccc(OC)cc1 | 0.95 | 1.06 |  |
| COc1ccc(S(=O)(=O)N(Cc2nc(-c3ccccc3)oc2C)[C@@H](C(=O)NO)C(C)C)cc1 | 0.98 | 1.02 |  |
| COc1ccc(-c2nc(CN([C@@H](C(=O)O)C(C)C)S(=O)(=O)c3ccc(C)cc3)c(C)o2)cc1 | 1.05 | 1.12 |  |
| COC(=O)[C@@H](C(C)C)N(Cc1nc(-c2ccc(Cl)cc2)oc1C)S(=O)(=O)c1ccc(OC)cc1 | 0.93 | 1.12 |  |
| COC(=O)[C@H](NS(=O)(=O)c1ccc(OC)cc1)C(C)C | 1.06 | 1.02 |  |
| CCOC(=O)c1nc(-c2ccc(-c3ccccc3)cc2)oc1C |  |  | Activity (SK-HEP1 [2]): Active; inhibition (SK-HEP1 [3]): Active; Activity (HCCLM3): Active; EC50 [4]: 1.85 µM |
| COc1ccc(S(=O)(=O)N(Cc2nc(-c3cc(OC)c(OC)c(OC)c3)oc2C)[C@@H](C(=O)O)C(C)C)cc1 | 1.02 | 1.08 |  |
| COc1ccc(-c2nc(CCl)c(C)o2)cc1 | 1.05 | 1.12 |  |
| Cc1oc(-c2ccccc2)nc1CCl | 1.03 | 1.13 |  |
| Cc1oc(-c2ccc(OCc3ccccc3)cc2)nc1CCl | 2.01 | 4.77 |  |
| CCOC(=O)c1nc(-c2ccc(Cl)cc2)oc1C |  |  | EC50 [4]: 7.34 µM |
| COC(=O)[C@@H](C(C)C)N(Cc1nc(-c2ccc([N+](=O)[O-])cc2)oc1C)S(=O)(=O)c1ccc(OC)cc1 | 0.96 | 0.98 |  |
| Cc1oc(-c2ccc([N+](=O)[O-])cc2)nc1CCl | 1.11 | 1.2 |  |
| COc1ccc(S(=O)(=O)N(Cc2nc(-c3ccc(OC)c(OC)c3)oc2C)[C@@H](C(=O)NO)C(C)C)cc1 | 0.86 | 1.02 |  |
| COc1ccc(-c2nc(CN([C@@H](C(=O)O)C(C)C)S(=O)(=O)c3ccc(OC)cc3)c(C)o2)cc1 | 1 | 1.04 |  |
| COC(=O)[C@@H](C(C)C)N(Cc1nc(-c2ccccc2)oc1C)S(=O)(=O)c1ccc(OC)cc1 | 1.09 | 0.96 |  |
| COC(=O)[C@@H](C(C)C)N(Cc1nc(-c2ccc(OC)c(OC)c2)oc1C)S(=O)(=O)c1ccc(C)cc1 | 0.95 | 1.08 |  |
| COc1ccc(S(=O)(=O)N(Cc2nc(-c3ccc(OCc4ccccc4)cc3)oc2C)[C@@H](C(=O)O)C(C)C)cc1 | 1.65 | 2.47 |  |

| SMILES | RLU [1] | RLU (HeLa) | other results |
| --- | --- | --- | --- |
| COC(=O)[C@@H](C(C)C)N(Cc1nc(-c2ccc(Cl)cc2)oc1C)S(=O)(=O)c1ccc(C)cc1 | 1.08 | 1.03 |  |
| COC(=O)[C@H](NS(=O)(=O)c1ccc(C)cc1)C(C)C | 1.03 | 1.04 |  |
| COC(=O)[C@@H](C(C)C)N(Cc1nc(-c2cc(OC)c(OC)c(OC)c2)oc1C)S(=O)(=O)c1ccc(OC)cc1 | 1.03 | 1.08 |  |
| Cc1oc(-c2ccc(-c3ccccc3)cc2)nc1C(=O)OCCO |  |  | Activity (SK-HEP1 [2]): Active; inhibition (SK-HEP1 [3]): Active; Activity (HCCLM3): Active; EC50 [4]: 7.44 µM |
| CCOC(=O)c1nc(-c2cc(OC)c(OC)c(OC)c2)oc1C | 1.09 | 1.13 |  |
| Cc1ccc(S(=O)(=O)N(Cc2nc(-c3ccc(Cl)cc3)oc2C)[C@@H](C(=O)O)C(C)C)cc1 | 1.03 | 1.14 |  |
| CCOC(=O)c1nc(-c2ccc(OC)c(OC)c2)oc1C | 1.17 | 1.35 |  |
| COc1ccc(S(=O)(=O)N(Cc2nc(-c3ccccc3)oc2C)[C@@H](C(=O)O)C(C)C)cc1 | 1.01 | 1.05 |  |
| CCOC(=O)c1nc(-c2ccc(C)cc2)oc1C |  |  | Activity (SK-HEP1 [2]): Active; inhibition (SK-HEP1 [3]): Active; Activity (HCCLM3): Active; EC50 [4]: 2.99 µM |
| COC(=O)[C@@H](C(C)C)N(Cc1nc(-c2ccc(OCc3ccccc3)cc2)oc1C)S(=O)(=O)c1ccc(OC)cc1 | 1.32 | 1.58 |  |
| COC(=O)[C@@H](C(C)C)N(Cc1nc(-c2ccc(OC)cc2)oc1C)S(=O)(=O)c1ccc(C)cc1 | 1.04 | 1.06 |  |
| CCOC(=O)c1nc(-c2ccc(Br)cc2)oc1C |  |  | EC50 [4]: 5.98 µM |
| Cc1oc(-c2ccc(Cl)cc2)nc1CCl | 1.11 | 1.22 |  |
| COc1ccc(S(=O)(=O)N(Cc2nc(-c3cc(OC)c(OC)c(OC)c3)oc2C)[C@@H](C(=O)NO)C(C)C)cc1 | 0.94 | 1.06 |  |
| COc1ccc(S(=O)(=O)N(Cc2nc(-c3ccc(Cl)cc3)oc2C)[C@@H](C(=O)O)C(C)C)cc1 | 0.97 | 1.06 |  |
| COc1ccc(-c2nc(CN([C@@H](C(=O)O)C(C)C)S(=O)(=O)c3ccc(C)cc3)c(C)o2)cc1OC | 0.97 | 0.98 |  |
| COC(=O)[C@@H](C(C)C)N(Cc1nc(-c2ccc(OC)cc2)oc1C)S(=O)(=O)c1ccc(OC)cc1 | 1.03 | 0.99 |  |
| COc1ccc(-c2nc(CN([C@@H](C(=O)NO)C(C)C)S(=O)(=O)c3ccc(OC)cc3)c(C)o2)cc1 | 1.02 | 1.01 |  |
| COc1ccc(-c2nc(CCl)c(C)o2)cc1OC | 1.06 | 1.3 |  |
| CCOC(=O)c1nc(-c2ccccc2)oc1C | 1.07 | 1.14 |  |
